For data set [1], the target named is T1, Mitogen-activated protein kinase 8 (Homo sapiens, UniProt P45983). The experiment in a line: Inhibition of JNK1 (unknown origin) by time-resolved fluorescence assay.
Data set [2] addresses T2, Mitogen-activated protein kinase 9 (Homo sapiens, UniProt P45984). The experiment in a line: Inhibition of JNK2 (unknown origin) by time-resolved fluorescence assay.
In data set [3] the target is T3, Mitogen-activated protein kinase 10 (Homo sapiens, UniProt P53779). The experiment in a line: Inhibition of JNK3 (unknown origin) by time-resolved fluorescence assay.
T3 sequence (P53779 whole entry): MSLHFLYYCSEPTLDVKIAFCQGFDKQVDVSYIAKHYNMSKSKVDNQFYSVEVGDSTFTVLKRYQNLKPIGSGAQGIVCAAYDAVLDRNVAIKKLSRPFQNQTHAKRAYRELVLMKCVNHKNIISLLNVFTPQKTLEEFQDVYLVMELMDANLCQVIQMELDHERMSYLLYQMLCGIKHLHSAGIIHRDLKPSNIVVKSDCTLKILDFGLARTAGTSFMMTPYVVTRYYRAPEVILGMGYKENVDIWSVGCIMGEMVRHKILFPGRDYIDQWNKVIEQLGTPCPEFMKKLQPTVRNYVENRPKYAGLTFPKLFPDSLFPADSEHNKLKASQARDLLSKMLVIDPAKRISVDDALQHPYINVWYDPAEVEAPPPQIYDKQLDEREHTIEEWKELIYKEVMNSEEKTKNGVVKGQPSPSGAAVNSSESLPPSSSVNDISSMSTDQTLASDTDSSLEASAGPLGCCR
The target in data set [4] is Mitogen-activated protein kinase 10 (Rattus norvegicus, UniProt P49187). The experiment in a line: Inhibition of JNK3-mediated c-jun phosphorylation in rat INS1 cells. Type of data set: cell-based.
Sequence of Mitogen-activated protein kinase 10 (Rattus norvegicus, UniProt P49187) (P49187 whole entry): as the sequence (P53779 whole entry) above, with Q27H, Y32S, I33V, A34V counted along it
Data set [5] addresses MAP kinase p38 (Homo sapiens, UniProt O15264+Q15759+Q16539+P53778). The experiment in a line: Inhibition of p38 (unknown origin). Type of data set: protein assay.
Data set [6] addresses Mast/stem cell growth factor receptor Kit (Homo sapiens, UniProt P10721). The experiment in a line: Inhibition of KIT (unknown origin).
Data set [7] concerns the target T3, Mitogen-activated protein kinase 10. The experiment in a line: Inhibition of JNK3-mediated c-jun phosphorylation in human A375 cells after 1 hr incubation. The data set is classed as cell-based, A-375.
For data set [8] the target is unchanged. The experiment in a line: Inhibition of JNK3-mediated c-jun phosphorylation in human HeLa cells after 1 hr incubation. Type of data set: cell-based.
Data set [9] deals with T1, Mitogen-activated protein kinase 8. The experiment in a line: Inhibition of JNK1 (unknown origin) after 1 hr incubation.
In data set [10] the target is Casein kinase I isoform delta (Homo sapiens, UniProt P48730). The experiment in a line: Inhibition of CK1delta (unknown origin) by KINOMEScan assay.
Sequence of Casein kinase I isoform delta (P48730 whole entry, canonical isoform): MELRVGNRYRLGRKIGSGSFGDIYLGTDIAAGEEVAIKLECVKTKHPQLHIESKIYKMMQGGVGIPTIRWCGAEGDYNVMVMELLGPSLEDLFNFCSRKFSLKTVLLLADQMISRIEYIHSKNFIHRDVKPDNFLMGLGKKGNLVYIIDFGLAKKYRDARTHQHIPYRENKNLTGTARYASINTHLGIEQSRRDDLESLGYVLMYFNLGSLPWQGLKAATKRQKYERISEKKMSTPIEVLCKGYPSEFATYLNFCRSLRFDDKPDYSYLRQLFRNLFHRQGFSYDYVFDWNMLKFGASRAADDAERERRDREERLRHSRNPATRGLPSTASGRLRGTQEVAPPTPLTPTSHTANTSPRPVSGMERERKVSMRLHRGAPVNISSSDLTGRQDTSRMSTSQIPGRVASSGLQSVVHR
For data set [11], the target named is MAP kinase-interacting serine/threonine-protein kinase 2 (Homo sapiens, UniProt Q9HBH9). The experiment in a line: Inhibition of MKNK2 (unknown origin) by KINOMEScan assay.
Sequence of MAP kinase-interacting serine/threonine-protein kinase 2 (Q9HBH9 whole entry): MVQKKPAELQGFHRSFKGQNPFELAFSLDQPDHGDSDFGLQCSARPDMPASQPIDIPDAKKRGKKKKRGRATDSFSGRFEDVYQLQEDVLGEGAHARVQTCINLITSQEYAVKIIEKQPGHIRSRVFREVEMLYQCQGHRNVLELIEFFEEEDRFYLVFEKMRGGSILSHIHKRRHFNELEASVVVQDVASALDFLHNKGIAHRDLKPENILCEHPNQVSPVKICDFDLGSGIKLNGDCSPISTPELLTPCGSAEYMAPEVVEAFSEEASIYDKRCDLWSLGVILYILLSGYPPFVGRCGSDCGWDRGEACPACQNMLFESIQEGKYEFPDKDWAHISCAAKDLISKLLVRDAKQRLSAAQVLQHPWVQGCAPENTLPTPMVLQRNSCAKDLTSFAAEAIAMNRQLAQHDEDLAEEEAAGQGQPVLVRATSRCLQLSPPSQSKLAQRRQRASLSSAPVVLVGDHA
The target of data set [12] is T2, Mitogen-activated protein kinase 9. The experiment in a line: Inhibition of JNK2 (unknown origin).
For data set [13], the target named is T1, Mitogen-activated protein kinase 8. The experiment in a line: Inhibition of JNK1 (unknown origin).
In data set [14] the target is Phosphatidylinositol 4,5-bisphosphate 3-kinase catalytic subunit gamma isoform (Homo sapiens, UniProt P48736). The experiment in a line: Inhibition of PI3Kgamma (unknown origin) by KINOMEScan assay.
Sequence of Phosphatidylinositol 4,5-bisphosphate 3-kinase catalytic subunit gamma isoform (P48736 whole entry, canonical isoform): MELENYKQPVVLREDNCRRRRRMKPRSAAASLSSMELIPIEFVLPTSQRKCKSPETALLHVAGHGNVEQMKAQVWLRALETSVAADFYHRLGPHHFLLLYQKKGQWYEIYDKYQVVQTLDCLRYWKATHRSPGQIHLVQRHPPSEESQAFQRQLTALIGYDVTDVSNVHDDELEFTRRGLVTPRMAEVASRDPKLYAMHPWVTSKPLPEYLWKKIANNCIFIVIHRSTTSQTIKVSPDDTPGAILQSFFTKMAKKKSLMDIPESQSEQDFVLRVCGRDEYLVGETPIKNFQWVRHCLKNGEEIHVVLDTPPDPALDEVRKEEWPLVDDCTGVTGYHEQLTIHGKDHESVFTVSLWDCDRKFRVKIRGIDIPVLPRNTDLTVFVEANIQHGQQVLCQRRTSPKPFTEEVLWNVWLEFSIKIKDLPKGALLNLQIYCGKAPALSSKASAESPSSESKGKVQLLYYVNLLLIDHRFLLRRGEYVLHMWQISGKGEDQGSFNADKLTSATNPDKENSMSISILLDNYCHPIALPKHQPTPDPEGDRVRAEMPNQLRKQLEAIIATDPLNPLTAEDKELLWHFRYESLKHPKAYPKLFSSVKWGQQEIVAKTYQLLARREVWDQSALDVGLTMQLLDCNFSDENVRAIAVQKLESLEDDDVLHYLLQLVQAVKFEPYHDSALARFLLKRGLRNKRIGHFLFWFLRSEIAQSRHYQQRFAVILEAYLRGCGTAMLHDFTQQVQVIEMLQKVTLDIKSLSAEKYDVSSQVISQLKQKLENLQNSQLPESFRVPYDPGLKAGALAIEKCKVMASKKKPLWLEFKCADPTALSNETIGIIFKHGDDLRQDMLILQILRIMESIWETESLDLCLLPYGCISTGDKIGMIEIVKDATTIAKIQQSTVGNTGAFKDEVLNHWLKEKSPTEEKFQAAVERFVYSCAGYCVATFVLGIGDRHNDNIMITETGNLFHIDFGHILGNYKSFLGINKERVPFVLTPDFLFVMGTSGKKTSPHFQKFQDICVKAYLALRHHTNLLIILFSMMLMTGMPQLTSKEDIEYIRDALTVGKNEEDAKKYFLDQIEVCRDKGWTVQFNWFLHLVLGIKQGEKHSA
Data set [15] is described as follows: Oral bioavailability in rat at 2 mg/kg. The data set is classed as ADME, organism-based. To be noted: in vivo.
Data set [16] is described as follows: Clearance in rat at 1 mg/kg, iv and 2 mg/kg, po. To be noted: in vivo. The data set is classed as ADME, organism-based.
The nature of data set [17]: Half life in rat at 1 mg/kg, iv and 2 mg/kg, po. Type of data set: ADME, organism-based. Particulars: in vivo.
The target of data set [18] is T3, Mitogen-activated protein kinase 10. The experiment in a line: Inhibition of JNK3 (unknown origin) by JIP-FP displacement assay.
Data set [19] deals with Leucine-rich repeat serine/threonine-protein kinase 2 (Homo sapiens, UniProt Q5S007, G2019S). The experiment in a line: Inhibition of LRRK2 G2019S mutant (unknown origin).
In data set [20] the target is T1, Mitogen-activated protein kinase 8. The experiment in a line: Inhibition of JNK1 (unknown origin) by JIP-FP displacement assay.
For data set [21], the target named is T2, Mitogen-activated protein kinase 9. The experiment in a line: Inhibition of JNK2 (unknown origin) by JIP-FP displacement assay.
The target in data set [22] is Cytochrome P450 3A4 (Homo sapiens, UniProt P08684). The experiment in a line: Inhibition of CYP3A4 (unknown origin). Type of data set: ADME.
Data set [23] deals with Cytochrome P450 2D6 (Homo sapiens, UniProt P10635). The experiment in a line: Inhibition of CYP2D6 (unknown origin). The data set is classed as ADME.
Data set [24] has as its target Non-receptor tyrosine-protein kinase TYK2 (Homo sapiens, UniProt P29597). The experiment in a line: Inhibition of TYK2 (unknown origin).
Data set [25] concerns the target Cytochrome P450 1A2 (Homo sapiens, UniProt P05177). The experiment in a line: Inhibition of CYP1A2 (unknown origin). The data set is classed as ADME.
Data set [26] addresses Platelet-derived growth factor receptor beta (Homo sapiens, UniProt P09619). The experiment in a line: Inhibition of PDGFRbeta (unknown origin).
Data set [27] in a line: Neuroprotective effect against MPP+-induced cell death in primary cultures of mouse mesencephalic dopaminergic neurons […] single dose after 8 hrs. Type of data set: functional.
In data set [28] the target is Cytochrome P450 2C9 (Homo sapiens, UniProt P11712). The experiment in a line: Inhibition of CYP2C9 (unknown origin). Type of data set: ADME.
Data set [29] concerns the target Cytochrome P450 2C19 (Homo sapiens, UniProt P33261). The experiment in a line: Inhibition of CYP2C19 (unknown origin). The data set is classed as ADME.
The target in data set [30] is Cytochrome P450 2A6 (Homo sapiens, UniProt P11509). The experiment in a line: Inhibition of CYP2A6 (unknown origin). Type of data set: ADME.
Data set [31] has as its system Rattus norvegicus. The experiment in a line: Protective activity in rat model of myocardial ischemia-reperfusion injury assessed as reduction in infarct volume at 5 mg/kg. Type of data set: functional.
Data set [32] concerns the target Cytochrome P450 2B6 (Homo sapiens, UniProt P20813). The experiment in a line: Inhibition of CYP2B6 (unknown origin). The data set is classed as ADME.
Data set [33] is filed under the species Rattus norvegicus. The experiment in a line: Neuroprotective effect against D-amphetamine-induced circling in rats assessed as reduction in behavioral deficits. Type of data set: functional.
The target in data set [34] is Mast/stem cell growth factor receptor Kit (Homo sapiens, UniProt P10721, V559D). The experiment in a line: Inhibition of KIT V559D (unknown origin).
The target in data set [35] is Cytochrome P450 2E1 (Homo sapiens, UniProt P05181). The experiment in a line: Inhibition of CYP2E1 (unknown origin). Type of data set: ADME.
Data set [36] deals with Cytochrome P450 2C8 (Homo sapiens, UniProt P10632). The experiment in a line: Inhibition of CYP2C8 (unknown origin). The data set is classed as ADME.
A short description of data set [37]: Oral bioavailability in rat. Type of data set: ADME, organism-based. To be noted: in vivo.
Data set [38] is filed under the species Rattus norvegicus. The experiment in a line: Ratio of drug level brain to plasma in rat. The data set is classed as ADME, organism-based.

These results are taken from ChEMBL document CHEMBL3393060, “Inhibitors of c-Jun N-terminal kinases: an update” (J Med Chem, 2015).

Broadly, the IC50 is the concentration at which inhibition is half-maximal. As a reminder, the Kd is a measure of binding affinity in units of concentration. A lower Kd goes with a tighter complex. By bioavailability is commonly meant the share of a dose that reaches the circulation, judged against a reference dose that is usually intravenous. Lower therefore signals little systemic uptake. By half-life is commonly meant the time needed for the level to fall by half in the phase considered. One may read the inhibition in vivo as the change of the read-out against control, counted positive when it falls.

T1 sequence (P45983 whole entry): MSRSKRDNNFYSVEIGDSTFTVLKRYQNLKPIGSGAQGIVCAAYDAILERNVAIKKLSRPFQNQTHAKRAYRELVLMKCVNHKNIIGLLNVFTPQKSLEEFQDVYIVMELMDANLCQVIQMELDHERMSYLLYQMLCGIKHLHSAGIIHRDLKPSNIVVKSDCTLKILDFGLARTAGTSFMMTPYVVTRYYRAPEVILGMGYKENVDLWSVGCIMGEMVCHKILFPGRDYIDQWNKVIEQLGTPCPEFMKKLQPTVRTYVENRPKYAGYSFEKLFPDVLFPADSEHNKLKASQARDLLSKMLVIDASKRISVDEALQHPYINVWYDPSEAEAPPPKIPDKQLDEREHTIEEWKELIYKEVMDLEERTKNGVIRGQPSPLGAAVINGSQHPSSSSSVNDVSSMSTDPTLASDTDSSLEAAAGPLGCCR
T2 sequence (P45984 whole entry): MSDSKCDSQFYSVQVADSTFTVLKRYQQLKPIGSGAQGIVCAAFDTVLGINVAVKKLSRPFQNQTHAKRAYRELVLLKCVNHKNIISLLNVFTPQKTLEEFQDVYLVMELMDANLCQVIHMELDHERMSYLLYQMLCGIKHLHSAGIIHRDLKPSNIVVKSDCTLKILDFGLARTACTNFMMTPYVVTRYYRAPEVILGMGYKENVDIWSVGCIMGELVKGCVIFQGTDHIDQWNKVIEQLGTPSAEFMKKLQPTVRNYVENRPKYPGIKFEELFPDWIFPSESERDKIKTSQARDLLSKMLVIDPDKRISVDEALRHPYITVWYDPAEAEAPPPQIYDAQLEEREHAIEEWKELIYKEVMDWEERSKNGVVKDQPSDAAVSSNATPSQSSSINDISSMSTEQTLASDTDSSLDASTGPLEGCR
Sequence of Mast/stem cell growth factor receptor Kit (Homo sapiens, UniProt P10721) (P10721 whole entry): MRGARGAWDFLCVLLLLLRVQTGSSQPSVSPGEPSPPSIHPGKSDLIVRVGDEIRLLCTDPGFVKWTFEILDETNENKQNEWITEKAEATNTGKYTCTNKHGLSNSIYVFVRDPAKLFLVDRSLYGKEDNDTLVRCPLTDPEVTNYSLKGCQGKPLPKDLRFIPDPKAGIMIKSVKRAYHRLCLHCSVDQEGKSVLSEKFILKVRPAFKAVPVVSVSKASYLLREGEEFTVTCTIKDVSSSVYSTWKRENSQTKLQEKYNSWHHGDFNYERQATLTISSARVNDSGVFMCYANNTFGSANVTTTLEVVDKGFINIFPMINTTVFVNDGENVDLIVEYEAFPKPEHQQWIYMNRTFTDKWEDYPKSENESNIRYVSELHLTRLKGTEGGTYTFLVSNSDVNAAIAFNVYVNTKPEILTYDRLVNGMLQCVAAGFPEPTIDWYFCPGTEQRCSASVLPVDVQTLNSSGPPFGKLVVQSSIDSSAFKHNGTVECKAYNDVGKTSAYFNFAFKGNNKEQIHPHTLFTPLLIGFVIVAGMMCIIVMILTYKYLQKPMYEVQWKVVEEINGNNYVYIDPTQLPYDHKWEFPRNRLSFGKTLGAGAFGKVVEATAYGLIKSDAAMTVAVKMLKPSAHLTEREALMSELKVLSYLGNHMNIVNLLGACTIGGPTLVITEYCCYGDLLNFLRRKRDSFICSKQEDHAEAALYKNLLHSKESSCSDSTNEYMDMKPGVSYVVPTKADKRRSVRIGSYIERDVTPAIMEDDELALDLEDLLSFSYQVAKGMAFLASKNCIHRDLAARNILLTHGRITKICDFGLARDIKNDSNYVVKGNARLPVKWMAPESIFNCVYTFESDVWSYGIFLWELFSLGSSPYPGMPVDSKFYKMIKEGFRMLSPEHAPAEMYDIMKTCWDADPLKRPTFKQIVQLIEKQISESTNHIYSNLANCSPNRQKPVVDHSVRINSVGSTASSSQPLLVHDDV
Sequence of Cytochrome P450 2C19 (P33261 whole entry): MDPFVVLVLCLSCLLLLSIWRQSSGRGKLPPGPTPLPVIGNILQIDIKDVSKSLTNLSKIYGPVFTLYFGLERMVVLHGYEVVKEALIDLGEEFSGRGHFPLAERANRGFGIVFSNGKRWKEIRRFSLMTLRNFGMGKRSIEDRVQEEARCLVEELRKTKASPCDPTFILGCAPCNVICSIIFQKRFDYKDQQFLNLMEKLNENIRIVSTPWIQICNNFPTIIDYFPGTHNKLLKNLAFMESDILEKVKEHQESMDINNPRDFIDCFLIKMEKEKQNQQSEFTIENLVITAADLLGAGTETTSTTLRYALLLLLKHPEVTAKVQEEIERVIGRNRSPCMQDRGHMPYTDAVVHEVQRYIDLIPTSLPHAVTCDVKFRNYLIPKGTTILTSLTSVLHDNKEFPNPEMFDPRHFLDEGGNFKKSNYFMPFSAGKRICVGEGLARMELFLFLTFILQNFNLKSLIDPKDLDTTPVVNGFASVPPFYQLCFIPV

Regarding `CN(C)c1ccc(-c2cnc3[nH]cc(-c4cn[nH]c4)c3c2)cc1`, the concentration for half-maximal inhibition (IC50) in data set [1] was determined as 101 nM; in data set [2], 59 nM; in [3] it was 32 nM.
For `CS(=O)(=O)Nc1ccc(-c2ccnc(Nc3ccc(-n4ccnn4)cc3)n2)cc1`, the IC50 is 210 nM in data set [4] and more than 20 µM in data set [5].
`COc1ccc(CC(=O)Nc2cc3cc(-c4cnn(C)c4)ccc3cn2)cc1` displayed an IC50 in data set [1] of 0.8 nM.
Take `O=C(NCCN1CCOCC1)c1ccnc(-n2ncc3cc(Nc4ccccc4Cl)ccc32)c1`: the Kd in data set [6] is less than 1 µM.
Turning to `CN(C)C/C=C/C(=O)Nc1cccc(C(=O)Nc2ccc(Nc3nccc(-c4c(-c5ccccc5)nn5ccccc45)n3)cc2)c1`, the concentration for half-maximal inhibition (IC50) was 9 nM in data set [7], 48 nM in data set [8] and 1.3 nM in data set [9].
`CN(C)C/C=C/C(=O)Nc1cccc(C(=O)Nc2ccc(Nc3nccc(-c4cccnc4)n3)cc2)c1`: it took 1.5 nM to reach half-maximal inhibition in data set [9] (IC50).
Consider `CN(C)C/C=C/C(=O)Nc1ccc(C(=O)Nc2cccc(Nc3nccc(-c4cccnc4)n3)c2)cc1`, for which, in data set [7], the IC50 worked out at 2400 nM.
On to `O=C(O/N=C1/c2ccccc2-c2nc3ccccc3nc21)c1ccco1`, for which the Kd came out at 560 nM in [10]; 1200 nM in data set [11]; 290 nM in data set [12]; 240 nM in data set [13]; 430 nM in data set [14].
Compound `NC(=O)c1ccccc1Nc1nc(Nc2ccc(N3CCCC3=O)cc2)ncc1Cl` gave a 50% inhibitory concentration (IC50) in [1] of 0.24 nM.
As for `NC(=O)c1ccccc1Nc1nc(Nc2ccc(N3CCOCC3)cc2)ncc1Cl`, the values for the half-inhibitory concentration (IC50) in [1] and in data set [3] were 1 nM and 0.3 nM, respectively.
In the case of `Fc1cc(-c2cc[nH]/c(=N/c3ccc(-n4cnc(N5CCOCC5)n4)cc3)n2)cc(N2CCOCC2)c1`, the values for the IC50 in data set [4], in data set [2] and in [5] were 54 nM, 99 nM and more than 20 µM, respectively.
`Cn1cc(-c2c[nH]c3ncc([C@H]4CC[C@H](N5CCCOCC5)CC4)cc23)cn1`: the IC50 in data set [1] stood at 166 nM; in data set [2] it was 339 nM.
As to `COc1cc(NC(=O)c2cccc(-n3cc(NC(=O)Nc4ccccc4)cn3)c2)cc(OC)c1OC`, the IC50 in [4] came to 1200 nM; in data set [5] it was 3.7 µM.
In the case of `O/N=C1/c2ccccc2-c2nc3ccccc3nc21`, the Kd was determined as 380 nM in data set [10], 920 nM in data set [11] and 470 nM in [14].
As for `Cn1cc(-c2c[nH]c3ncc([C@H]4CC[C@H](N5CCOCC5)CC4)cc23)cn1`, the IC50 in [1] is 74 nM; in data set [2] it was 123 nM; in [3] it was 85 nM.
`O=C(NCCN1CCN(C2CCC2)CC1)c1cccc(-n2ncc3cc(Nc4ccccc4Cl)ccc32)c1` gave a bioavailability in [15] of 27%. Further, the figures for the IC50 in data set [1] and in data set [3] were 970 nM and 40 nM, respectively. For the same compound, the clearance in [16] came out at 25 mL/min/kg. Besides, the half-life in [17] amounted to 3.3 min.
In the case of `COc1ccc2c(c1)OCC(C(=O)NC(=O)N(CC(=O)NCCCCCCNC(=O)c1ccc(-c3n[nH]c4ccccc34)cc1)CC(C)C)O2` (stereo not given), the IC50 in data set [4] came to 2800 nM; in data set [18] it was 12 nM; in data set [19], 99 nM; in data set [20], 109 nM; in [21] it was 336 nM.
For `COc1ccc(C(=O)O/N=C2/c3ccccc3-c3nc4ccccc4nc32)cc1OC`, the Kd is 5700 nM in data set [10]; 10000 nM in data set [11]; 280 nM in [12]; 270 nM in data set [13]; 12000 nM in data set [14].
With `Cn1cc(-c2ccc3cnc(Nc4ccc(-n5cnc(N6CCOCC6)n5)cc4)nc3c2)cn1`, the IC50 in data set [4] stood at 310 nM; in data set [2], 90 nM.
As to `Cc1ccc(-c2ncn(-c3ccc(Nc4nccc(-c5cccc(N6CCOCC6)c5)n4)cc3)n2)cn1`, the IC50 in data set [4] was 216 nM; in data set [22], more than 50 µM; in [23], more than 50 µM; in [1] it was 67 nM; in [2], 283 nM; in data set [25], more than 50 µM. In addition, the IC50 is more than 50 µM in data set [28]; more than 50 µM in data set [29]; more than 50 µM in [30]; more than 50 µM in [32]; 159 nM in data set [3]; more than 20 µM in data set [5]. Moreover, the IC50 in data set [35] and in [36] was more than 50 µM in each case. Besides, the dissociation constant (Kd) in data set [24] is less than 1000 nM; in [26], less than 1000 nM; in data set [6], more than 20 µM; in data set [34], less than 1000 nM. Also, in data set [27], the Activity is on record as more than 90%. The inhibition in vivo at 5 mg/kg in data set [31] was 34%. Besides, the “inhibition (INH)” value in data set [33] was determined as 90%.
As for `COc1cc(NC(=O)c2cccc(-n3cc(NC(=O)Nc4cccc(C)c4)cn3)c2)cc(OC)c1OC`, the IC50 was 1300 nM in data set [4], 17 nM in data set [1] and more than 20 µM in data set [5]. Further, the Kd in data set [6] was more than 20 µM.
Regarding `COc1cc(N2CCOCC2)ccc1Nc1ncc(Cl)c(Nc2ccccc2C(N)=O)n1`, the values for the IC50 in [4], in [1] and in data set [3] were 3 nM, 3 nM and 0.8 nM, respectively. This compound yielded a bioavailability in data set [37] of 30%. Also, in data set [38], the BPR is 17%.
